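Following 48 hours of exposure in 96-well plates, responses at five concentrations were used to interpolate endpoints linearly. GI50 is the concentration that inhibits growth by half. Definition used: TGI = concentration required for complete inhibition of growth.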
How the values were obtained:
Assay in all cases: DTP human tumour cell line panel, 48 h
MCF7 breast = test system: MCF7 breast
IGROV1 ovarian = test system: IGROV1 ovarian
HL-60(TB) leukemia = test system: HL-60(TB) leukemia
HS 578T breast = test system: HS 578T breast
RPMI-8226 leukemia = test system: RPMI-8226 leukemia
MDA-MB-435 = test system: MDA-MB-435
ACHN renal = test system: ACHN renal
OVCAR-5 ovarian = test system: OVCAR-5 ovarian
UACC-62 melanoma = test system: UACC-62 melanoma
SNB-19 CNS = test system: SNB-19 CNS
NCI-H23 lung = test system: NCI-H23 lung
786-0 renal = test system: 786-0 renal
RXF 393 renal = test system: RXF 393 renal
EKVX NSCLC = test system: EKVX NSCLC
HCT-116 colon = test system: HCT-116 colon
OVCAR-4 ovarian = test system: OVCAR-4 ovarian
A498 renal = test system: A498 renal
T-47D breast = test system: T-47D breast
SK-MEL-5 melanoma = test system: SK-MEL-5 melanoma
CCRF-CEM leukemia = test system: CCRF-CEM leukemia
M14 melanoma = test system: M14 melanoma
COLO 205 colon = test system: COLO 205 colon
SNB-75 CNS = test system: SNB-75 CNS
HT29 colon = test system: HT29 colon
UACC-257 melanoma = test system: UACC-257 melanoma
OVCAR-8 ovarian = test system: OVCAR-8 ovarian
NCI-H460 lung = test system: NCI-H460 lung
SF-295 CNS = test system: SF-295 CNS

Structure (SMILES): CCN1CCN(c2ccc(NC(=O)Nc3nc4ccc(-c5ccccc5OC)cc4s3)cc2)CC1
- GI50 (MCF7 breast): 1310 nM
- TGI (MCF7 breast): 2860 nM
- GI50 (IGROV1 ovarian): 1870 nM
- TGI (IGROV1 ovarian): 3.61 µM
- GI50 (HL-60(TB) leukemia): 1730 nM
- TGI (HL-60(TB) leukemia): 3.58 µM
- GI50 (HS 578T breast): 1950 nM
- TGI (HS 578T breast): 4.45 µM
- GI50 (RPMI-8226 leukemia): 2060 nM
- TGI (RPMI-8226 leukemia): 4.6 µM
- GI50 (MDA-MB-435): 1710 nM
- TGI (MDA-MB-435): 3.14 µM
- GI50 (ACHN renal): 1740 nM
- TGI (ACHN renal): 3.11 µM
- GI50 (OVCAR-5 ovarian): 1800 nM
- TGI (OVCAR-5 ovarian): 3.37 µM
- GI50 (UACC-62 melanoma): 1870 nM
- TGI (UACC-62 melanoma): 3.45 µM
- GI50 (SNB-19 CNS): 2030 nM
- TGI (SNB-19 CNS): 3.65 µM
- GI50 (NCI-H23 lung): 1670 nM
- TGI (NCI-H23 lung): 3.65 µM
- GI50 (786-0 renal): 1800 nM
- TGI (786-0 renal): 3.28 µM
- GI50 (RXF 393 renal): 1700 nM
- TGI (RXF 393 renal): 3.3 µM
- GI50 (EKVX NSCLC): 1510 nM
- TGI (EKVX NSCLC): 3.12 µM
- GI50 (HCT-116 colon): 1580 nM
- TGI (HCT-116 colon): 3.01 µM
- GI50 (OVCAR-4 ovarian): 1680 nM
- TGI (OVCAR-4 ovarian): 3.31 µM
- GI50 (A498 renal): 1800 nM
- TGI (A498 renal): 3.61 µM
- GI50 (T-47D breast): 1580 nM
- TGI (T-47D breast): 3.61 µM
- GI50 (SK-MEL-5 melanoma): 1730 nM
- TGI (SK-MEL-5 melanoma): 3.12 µM
- GI50 (CCRF-CEM leukemia): 1810 nM
- TGI (CCRF-CEM leukemia): 4.09 µM
- GI50 (M14 melanoma): 1620 nM
- TGI (M14 melanoma): 3.03 µM
- GI50 (COLO 205 colon): 1970 nM
- TGI (COLO 205 colon): 3.85 µM
- GI50 (SNB-75 CNS): 1490 nM
- TGI (SNB-75 CNS): 2860 nM
- GI50 (HT29 colon): 1310 nM
- TGI (HT29 colon): 2700 nM
- GI50 (UACC-257 melanoma): 2110 nM
- TGI (UACC-257 melanoma): 3.79 µM
- GI50 (OVCAR-8 ovarian): 1990 nM
- TGI (OVCAR-8 ovarian): 3.66 µM
- GI50 (NCI-H460 lung): 1770 nM
- TGI (NCI-H460 lung): 3.27 µM
- GI50 (SF-295 CNS): 1680 nM

— PubChem BioAssay (NCI)
